# Results as given in patent US9493663B2, “Photopolymerizable inkjet ink, ink cartridge, and printer” (RICOH COMPANY, LTD., priority 2011, dated 2016).
# Assay: not given
# Conditions: MSDS; equivalent to SI value of less than 3; cited from earlier work
row,Molecule,skin sensitization evaluated in MSDS
1,Caprolactone-modified dipentaerythritol hexaacrylate [Example A7],negative

# Same assay, conditions: literature; equivalent to SI value of less than 3; cited from earlier work
row,Molecule,skin sensitization evaluated in literature
1,"C=C(C)C(=O)OC(C)(C)C [Example A15, t-Butyl methacrylate]",negative
2,"C=C(C)C(=O)OCCCCC [Example A16, n-Pentyl methacrylate]",negative
3,"C=C(C)C(=O)OCCCCCC [Example A17, n-Hexyl methacrylate]",negative

# Assay: skin sensitization test (LLNA, Local Lymph Node Assay, OECD test guideline 429), Stimulation Index
# Type: in vivo
# Conditions: SI less than 3 judged negative
# Source text: As described in literatures (for example, “Functional Material” (Kino Zairyou) 2005, September, Vol. 25, No. 9, p. 55), the compound having a Stimulation Index (SI value) of less than 3, where the Stimulation Index indicates the extent of skin sensitization, is judged as being negative for skin sensitization. […] The lower SI value means lower skin sensitization. […] The SI value of the monomer or the oligomer used is preferably 2 or lower, more preferably 1.6 or lower.
# The description “negative” or “none” is equivalent to the SI value of less than 3.
row,Molecule,SI value (Stimulation Index)
1,"C=C(C)C(=O)OCC(C)(C)COC(=O)C(=C)C [Example A1, Neopentyl glycol dimethacrylate]",2.0
2,"C=C(C)C(=O)OCC(CC)(COC(=O)C(=C)C)COC(=O)C(=C)C [Example A5, Trimethylolpropane trimethacrylate]",1.9
3,"C=CC(=O)OCCCCCCCCCCCCCCCCCC [Example A12, Stearyl acrylate]",2.7
4,"C=C(C)C(=O)OCCCCOC(=O)C(=C)C [Example A13, 1,4-Butanediol dimethacrylate]",2.6
5,"C=CC(=O)OCCCCCCCCCCCCCCCC(C)C [Example A19, Isostearyl acrylate]",1.4
6,"C=C(C)C(=O)OCCCCCCCCCCCCCCCCCC [Example A21, Stearyl methacrylate]",1.2
7,Polyethoxylated tetramethylolmethane tetraacrylate [Example A9],1.7
8,Polyethylene glycol dimethacrylate represented by General Formula (1) (n is nearly equal to 2) [Example A23],1.1
9,Polyethylene glycol dimethacrylate represented by General Formula (1) (n is nearly equal to 14) [Example A3],1.6
10,Polyethylene glycol dimethacrylate represented by the following General Formula (1) (n is nearly equal to 9) [Example A2],1.3
11,"Polypropylene glycol diacrylate [Example A14, Polypropylene glycol diacrylate [CH2═CH—CO—(OC3H6)n—OCOCH═CH2 (n is nearly equal to 12)]]",1.5
12,Tricyclodecanedimethanol dimethacrylate [Example A6],1.3
13,γ-Butyrolactone methacrylate [Example A4],2.1
